{"source": "ChEMBL document CHEMBL5096161", "about": "“Medulloblastoma drugs in development: Current leads, trials and drawbacks” (Eur J Med Chem, 2021)", "key": {"[1]": {"assay": "Anticancer activity against human MED-MEB-8A cells assessed as reduction in cell viability incubated for 72 hrs", "type": "functional, cell-based"}, "[2]": {"test_system": "D283 Med", "assay": "Anticancer activity against human D283 Med cells assessed as reduction in cell viability incubated for 72 hrs", "type": "functional, cell-based"}, "[3]": {"assay": "Antitumor activity against human D425 Med cells assessed as reduction in cell viability incubated for 24 hrs by Alamar blue assay", "type": "functional, cell-based"}, "[4]": {"assay": "Antitumor activity against human D341 Med cells assessed as reduction in cell viability incubated for 24 hrs by Alamar blue assay", "type": "functional, cell-based"}, "[5]": {"assay": "Antitumor activity against human D384 Med cells assessed as reduction in cell viability incubated for 24 hrs by Alamar blue assay", "type": "functional, cell-based"}, "[6]": {"molecular_target": "Vascular endothelial growth factor receptor 2 (Homo sapiens, UniProt P35968)", "sequence (P35968 whole entry, the tested form may be a part)": "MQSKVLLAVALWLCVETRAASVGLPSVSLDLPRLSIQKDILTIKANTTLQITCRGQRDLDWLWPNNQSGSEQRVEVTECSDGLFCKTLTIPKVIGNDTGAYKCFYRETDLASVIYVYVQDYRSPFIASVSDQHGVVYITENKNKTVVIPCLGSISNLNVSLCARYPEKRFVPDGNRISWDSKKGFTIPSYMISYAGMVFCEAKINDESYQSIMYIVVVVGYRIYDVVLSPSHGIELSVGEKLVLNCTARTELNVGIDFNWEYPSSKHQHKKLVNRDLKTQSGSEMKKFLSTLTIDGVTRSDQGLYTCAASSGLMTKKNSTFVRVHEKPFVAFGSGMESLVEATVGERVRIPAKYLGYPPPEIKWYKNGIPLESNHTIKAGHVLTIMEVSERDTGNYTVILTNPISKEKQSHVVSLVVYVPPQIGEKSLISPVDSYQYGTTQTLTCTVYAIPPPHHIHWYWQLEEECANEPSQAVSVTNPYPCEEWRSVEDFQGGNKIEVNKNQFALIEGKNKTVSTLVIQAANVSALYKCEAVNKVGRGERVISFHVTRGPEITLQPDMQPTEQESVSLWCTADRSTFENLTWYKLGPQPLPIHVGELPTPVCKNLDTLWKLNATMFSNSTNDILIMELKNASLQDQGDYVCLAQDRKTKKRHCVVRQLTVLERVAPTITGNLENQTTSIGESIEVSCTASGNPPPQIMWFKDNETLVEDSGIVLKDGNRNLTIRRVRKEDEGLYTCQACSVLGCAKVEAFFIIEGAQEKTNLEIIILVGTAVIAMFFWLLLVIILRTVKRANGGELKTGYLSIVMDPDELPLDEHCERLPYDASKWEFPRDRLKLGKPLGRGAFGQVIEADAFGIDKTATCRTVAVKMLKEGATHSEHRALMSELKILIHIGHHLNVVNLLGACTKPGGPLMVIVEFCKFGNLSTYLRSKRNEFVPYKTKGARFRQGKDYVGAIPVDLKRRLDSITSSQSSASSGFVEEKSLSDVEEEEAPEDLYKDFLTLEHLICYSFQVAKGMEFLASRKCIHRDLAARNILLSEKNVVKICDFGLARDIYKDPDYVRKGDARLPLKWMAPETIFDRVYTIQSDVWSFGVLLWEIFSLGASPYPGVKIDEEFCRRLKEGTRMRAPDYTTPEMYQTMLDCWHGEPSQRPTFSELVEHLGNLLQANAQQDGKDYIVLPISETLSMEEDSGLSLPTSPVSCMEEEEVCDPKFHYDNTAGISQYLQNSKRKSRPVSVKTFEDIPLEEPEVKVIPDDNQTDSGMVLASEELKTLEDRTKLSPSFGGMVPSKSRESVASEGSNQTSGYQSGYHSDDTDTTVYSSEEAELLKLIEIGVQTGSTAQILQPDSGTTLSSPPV", "assay": "Inhibition of human VEGFR2 (789 to 1356 residues) assessed as reduction in autophosphorylation at Y1175 residues using poly (Glu4Tyr1) peptide and ATP as substrate incubated for 60 mins by ADP-Glo Kinase Assay"}, "[7]": {"test_system": "Mus musculus", "assay": "Antitumor activity in Ptch+/- p53-/- mutant mouse medulloblastoma allograft model assessed as increase in survival rate at 50 mg/kg, po QD relative to control (Rvb=75 days)", "type": "functional"}}}
{"smiles": "C[C@H]1O[C@@H](O[C@H]2[C@@H](O)C[C@H](O[C@H]3[C@@H](O)C[C@H](O[C@H]4CC[C@@]5(C)[C@H](CC[C@@H]6[C@@H]5C[C@@H](O)[C@]5(C)[C@@H](C7=CC(=O)OC7)CC[C@]65O)C4)O[C@@H]3C)O[C@@H]2C)C[C@H](O)[C@@H]1O", "note": "[DIGOXIN]", "values": [{"measurement": "IC50", "setting": "[1]", "result": 0.106, "unit": "µM"}, {"measurement": "IC50", "setting": "[2]", "result": 0.01, "unit": "µM"}]}
{"smiles": "CCCCCCCCc1ccc(CCC(N)(CO)CO)cc1", "note": "[FINGOLIMOD]", "values": [{"measurement": "IC50", "setting": "[3]", "result": 7.5, "unit": "µM"}, {"measurement": "IC50", "setting": "[4]", "result": 5.5, "unit": "µM"}, {"measurement": "IC50", "setting": "[5]", "result": 7.3, "unit": "µM"}]}
{"smiles": "COC(=O)Nc1nc2cc(C(=O)c3ccccc3)ccc2[nH]1", "note": "[MEBENDAZOLE]", "values": [{"measurement": "IC50", "setting": "[6]", "result": 4.3, "unit": "µM"}, {"measurement": "MST", "setting": "[7]", "result": 113, "unit": "days"}]}
